Assay results published in ChEMBL document CHEMBL1153068, “Discriminatory synergistic effect of Trp-substitutions in superagonist [(Arg/Lys)(14), (Arg/Lys)(15)]nociceptin on ORL1 receptor binding and activation” (Bioorg Med Chem, 2009).

How the values were obtained:
[1] = target: Nociceptin receptor (Rattus norvegicus) (UniProt P35370); assay: Relative potency, ratio of wild type nociceptin IC50 to compound IC50 for rat ORL1 receptor expressed in african green monkey COS7 cells; assay type: cell-based; conditions: COS-7
Nociceptin receptor (Rattus norvegicus), sequence (P35370 whole entry): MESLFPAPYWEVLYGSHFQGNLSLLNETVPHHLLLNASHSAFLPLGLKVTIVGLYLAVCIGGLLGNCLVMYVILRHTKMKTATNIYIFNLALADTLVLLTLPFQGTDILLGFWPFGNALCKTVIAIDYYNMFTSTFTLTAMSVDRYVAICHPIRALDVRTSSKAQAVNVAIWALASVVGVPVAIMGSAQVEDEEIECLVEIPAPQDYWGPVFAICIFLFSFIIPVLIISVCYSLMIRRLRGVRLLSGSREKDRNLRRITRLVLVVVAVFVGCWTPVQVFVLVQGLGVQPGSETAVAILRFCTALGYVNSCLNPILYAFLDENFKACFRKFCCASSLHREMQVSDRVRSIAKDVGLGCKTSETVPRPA

[2] = target: Nociceptin receptor (Rattus norvegicus) (UniProt P35370); assay: Relative potency, ratio of wild type nociceptin EC50 to compound EC50 for stimulation of [35S]GTPgammaS binding to rat ORL1 receptor expressed in african green monkey COS7 cells; assay type: functional, cell-based; conditions: COS-7
Nociceptin receptor [3] = target: T1, Nociceptin receptor (Rattus norvegicus, UniProt P35370); assay: Displacement of [3H]nociceptin from rat ORL1 receptor expressed in african green monkey COS7 cells by competitive binding assay; assay type: cell-based, COS-7
T1 sequence (P35370 whole entry): as above

Nociceptin receptor [4] = target: T1, Nociceptin receptor; assay: Agonist activity at rat ORL1 receptor expressed in african green monkey COS7 cells assessed as stimulation of [35S]GTPgammaS binding by radioligand receptor-binding assay; assay type: functional, cell-based, COS-7

| Molecule | Ratio IC50 [1] | Ratio EC50 [2] | IC50 (Nociceptin receptor [3]) | EC50 (Nociceptin receptor [4]) |
| --- | --- | --- | --- | --- |
| H-FGGFTGARKSARKLWNQ-OH | 0.35 | 0.26 |  |  |
| H-FGGFTGARKSARKWANQ-OH | 1.78 | 2.24 |  |  |
| C[C@H](NC(=O)CNC(=O)[C@@H](NC(=O)[C@H](Cc1ccccc1)NC(=O)CNC(=O)CNC(=O)[C@@H](N)Cc1ccccc1)[C@@H](C)O)C(=O)N[C@@H](CCCNC(=N)N)C(=O)N[C@@H](CCCCN)C(=O)N[C@@H](CO)C(=O)N[C@@H](C)C(=O)N[C@@H](CCCNC(=N)N)C(=O)N[C@@H](CCCCN)C(=O)N[C@@H](CCCNC(=N)N)C(=O)N[C@@H](CCCCN)C(=O)N[C@@H](CC(N)=O)C(=O)N[C@@H](CCC(N)=O)C(=O)O | 3.48 | 11.8 |  |  |
| H-FGGFTGARKSARKRWNQ-OH | 2.43 | 4.19 | 0.3 nM | 3.1 nM |
| H-FGGFTGARKSARKWKNQ-OH [listing 1 of 2 here] |  |  | 0.25 nM | 1.3 nM |
| H-FGGFTGARKSARKKWNQ-OH | 2.35 | 4.06 | 0.31 nM | 3.2 nM |
| H-FGGFTGARKSARKWRNQ-OH | 3.17 | 10 | 0.23 nM | 1.3 nM |
| H-FGGFTGARKSARKWKNQ-OH [listing 2 of 2 here] | 2.92 | 10 |  |  |
